This is an account of results in patent US8546338B2, “Self-assembling hydrogels based on dicephalic peptide amphiphiles” (Johnson & Johnson Consumer Companies, Inc., priority 2010, dated 2013).

Some results are limits rather than exact numbers.

Series [1] can be described thus: Gelation experiments: inversion test for self-supporting hydrogels. The following applies: for Gelation (self-supporting gel on inversion), Calcium added: DMEM plus 10 μl of 100 mg/cc calcium chloride solution; for Concentration at which gel forms, Calcium added: DMEM with calcium chloride added; for Gelation (self-supporting gel on inversion), DMEM: DPA solution in water mixed 1:1 with DMEM, no calcium added; for Minimal concentration at which gel formed: in DMEM with calcium added; for Gelation (self-supporting gel on inversion), Water: in water, final concentrations 1, 2 and 4 weight percent tested. Format: physicochemical. How it is done: (§1) Inversion tests were performed to determine qualitatively under which conditions the various DPAs formed self-supporting hydrogels. The various types of DPAs were tested by dissolving them in ultrapure water (>18 MΩ resistivity) at double the desired final concentration followed by mixing in a 1:1 ratio with different liquid mediums. Gelation was deemed to have occurred if the gel supported its own weight upon inverting the vial (FIG. 3A and FIG. 3B). Gelation was tested at final concentrations of 1, 2 and 4 weight percent. We tested phosphate buffered saline (PBS), and Dulbecco's modified eagle media (DMEM) as liquid medium. Typical scale is 100 μl each of DPA solution in water and mixing medium but other scales have been tested. Finally, if no spontaneous gelation occurs, 10 μl of 100 mg/cc calcium chloride solution was added to induce gelation.

Series [2] can be described thus: Oscillating rheology, time sweep (kinetics of formation). The class given is physicochemical. How it is done: Oscillating rheology by the parallel plates method (radius=25 mm) was performed on 400 μl gels to assess the mechanical strengths of gels. Time sweeps were performed to evaluate kinetics of formation at a constant strain rate of 1% and frequency of 1 rad/s. Strain sweeps were performed ranging from 1-100% strain in increments of 2% at a constant frequency of 1 rad/s. Cross-over of G′ and G″ was used to determine the gel point and point of breakdown. Time sweeps were initiated immediately after mixing the solutions that lead to DPA hydrogel formation. In the strain sweeps, the gels were allowed to form on the plate for 30 minutes before the measurement is initiated.
The gelation process was initiated on the plate at 25° C. by the addition of 10 μl of 100 mg/ml calcium chloride solution to a solution of the DPA in DMEM.

Another series relates to Sprague-Dawley rats. Nature of the series: Biocompatibility study, gel injected into intra-gluteal muscle pocket. The following applies: rat; for Tissue response (histology): harvest at 3, 7 and 28 days. The class given is in vivo. The procedure: A biocompatibility study was performed on Gly-Val-Ala-Val-Ala-Val-Ala-Glu-Gly-Glu (SEQ ID NO: 4), Gly-Phe-Gly-Phe-Gly-Phe-Gly-Glu-Gly-Glu (SEQ ID NO: 5) and Gly-Phe-Gly-Phe-Gly-Phe-Gly-Gln-Gln-Ser (SEQ ID NO: 8) DPAs. Lyophilized DPA powders were e-beam sterilized in 1.5 cc polypropylene cryovials at 15 KGy. Gels were pre-formed in 1 cc syringes by mixing a 4 wt % DPA solution in water for injection in a 1:1 ratio with DMEM followed by immediate aspiration into the syringe. In the case of the formulations with the Glu-Gly-Glu (SEQ ID NO: 27) sequence in the solubility enhancing region, 10 μl of a sterile 100 mg/cc calcium chloride solution was mixed in before aspiration into the syringe. An intra-gluteal muscle pocket was created in Sprague-Dawley rats after which 100 μl of gel was injected using a catheter fitted to the syringe. Subsequently, the pocket was closed with polyglactin 910 sutures sold under the tradename VICRYL (Ethicon, Somerville, N.J.). Tissue was harvested at 3, 7 and 28 days after implantation.

A short description of series [3]: Cell viability of encapsulated hUTCs in DPA gels (Live/Dead). The following applies: human, human umbilical cord cells (hUTCs) encapsulated in DPA gel; 2% DPA, 100,000 cells, calcium chloride added, after 7 days of culture, Live/Dead; read-out: Viability of hUTC cells in the gels. Format: cell-based, human. The procedure:
The viability and proliferation of cells in the gels was evaluated by encapsulating human umbilical cord cells (hUTCs) in the gels. hUTCs were isolated as described in U.S. Pat. No. 7,510,873. Cells were thawed from storage and cultured for four days in Hayflick media. After four days, the cells were trypsinized and counted by the Guava ViaCount methodology (Millipore, Billerica, Mass.). Cells were re-suspended in Hayflick media at a density of 1,000,000 cells/ml. Encapsulation of the cells in the gels was achieved by adding 100 μl cell suspension to 100 μl of a 4 wt % DPA solution in ultrapure in a 24 well plate, resulting in a final DPA concentration of 2%. The gels were incubated for 1 h at 37° C., 5% CO2 after which 1000 μl media was added on top of the gel. Cells were incubated at 37° C., 5% CO2. Every 3-4 days of culture, 500 μl media was replaced.
After mixing of the cell suspension and 4% DPA solution by pipetting up and down, the protocol described above was modified by adding 10 μl 100 mg/ml calcium chloride solution upon which gelation occurred. Final concentrations are 2% in DPA and 100,000 cells. Control gels without cells were prepared by using pure media and additional cell only and cells with calcium chloride controls were prepared as standard 2D culture. After 7 days of culture, the gels were assayed with Live/Dead assay for cell viability and Invitrogen CyQuant GR assay for cell proliferation (Invitrogen, Carlsbad, Calif.). The Live/Dead was performed as described in the provided protocol but at half the […] concentration to reduce non-specific fluorescence due to dye absorption. […] The cells in the gels contained a lot of viable cells (FIG. 410). No dead cells could be observed in the gels. Therefore, the viability of these cells in the gels is very high (>95%).
In a second experiment, 100,000 hUTC cells were encapsulated in 2 wt % Gly-Phe-Gly-Phe-Gly-Phe-Gly-Gln-Gln-Ser (SEQ ID NO: 8) DPA gels. The cells were cultured for 3 weeks and cells were assessed after 1, 2 and 3 weeks with Live/Dead.

The nature of series [4]: Dissolution of DPA in ultrapure water. The class given is physicochemical. The following applies: ultrapure water (>18 MΩ resistivity). The procedure: as §1
Series [5] in a line: Titration of DPA acid groups with calcium ions. Format: physicochemical. The following applies: calcium titrated down from 16 to 1 equivalent by halving. An excerpt: The […] (SEQ ID NO: 3) DPA was titrated with calcium ions to determine the number of acid groups that required ion complexation in order for gelation to occur. Theoretically, there are eight acid groups (four per head group) that could be involved in the gelation process (FIG. 4).

[6] abbreviates: 2 wt % DPA in DMEM, calcium chloride added, 25° C.

Take `CCCCCCCCCCCCCCCC(=O)NC(C(=O)NCC(=O)N[C@@H](Cc1ccccc1)C(=O)NCC(=O)N[C@@H](Cc1ccccc1)C(=O)NCC(=O)N[C@@H](Cc1ccccc1)C(=O)NCC(=O)N[C@@H](CCC(=O)O)C(=O)NCC(=O)N[C@@H](CCC(=O)O)C(=O)O)C(=O)NCC(=O)N[C@@H](Cc1ccccc1)C(=O)NCC(=O)N[C@@H](Cc1ccccc1)C(=O)NCC(=O)N[C@@H](Cc1ccccc1)C(=O)NCC(=O)N[C@@H](CCC(=O)O)C(=O)NCC(=O)N[C@@H](CCC(=O)O)C(=O)O` [Gly-Phe-Gly-Phe-Gly-Phe-Gly-Glu-Gly-Glu]: in series [1], the “Gelation (self-supporting gel on inversion), Calcium added” value (from here on “Gelation … Calcium added”) is on record as “Yes”; the “Concentration at which gel forms, Calcium added” value (“Concentration … Calcium added” for short) came out at 1 wt %; the “Gelation (self-supporting gel on inversion), DMEM” value (from here on “Gelation … DMEM”) was “No”; the “Minimal concentration at which gel formed” value (“Minimal concentration” below) turned out to be 1 weight percent. The “Gelation (self-supporting gel on inversion), Water” value (“Gelation … Water” for short) in series [1] was “No”. Moreover, in series [2] (1 wt % DPA in DMEM, calcium chloride added, 25° C.), the “G′ after 10 minutes” value stood at 300 Pa. Also, in series [2] (2 wt % DPA in DMEM, calcium chloride added), the “Estimated final strength (extrapolation of the curve)” value is recorded as ~10,000 Pa. Besides, in series [2] (setting [6]), the “G′ (strength) after 1 hour” value is given as 7,200 Pa and the “G′ after 10 minutes” value was 4,000 Pa. For the same molecule, the “G′ after temperature raised to 37° C.” value in series [2] (2 wt % DPA, after 1 hour, temperature raised from 25° C. to 37° C.) is on record as 5,000 Pa. Besides, the Gross observations entry in the series on Sprague-Dawley rats (in vivo) is listed as “some fluid buildup at day 3”. Moreover, the viability – broadly, the share of living cells, or the viability signal relative to a control – at 168 h in series [3] is more than 95%.

For the molecule `CCCCCCCCCCCCCCCC(=O)NC(C(=O)NCC(=O)N[C@H](C(=O)N[C@@H](C)C(=O)N[C@H](C(=O)N[C@@H](C)C(=O)N[C@H](C(=O)N[C@@H](C)C(=O)N[C@@H](CCC(=O)O)C(=O)NCC(=O)N[C@@H](CCC(=O)O)C(=O)O)C(C)C)C(C)C)C(C)C)C(=O)NCC(=O)N[C@H](C(=O)N[C@@H](C)C(=O)N[C@H](C(=O)N[C@@H](C)C(=O)N[C@H](C(=O)N[C@@H](C)C(=O)N[C@@H](CCC(=O)O)C(=O)NCC(=O)N[C@@H](CCC(=O)O)C(=O)O)C(C)C)C(C)C)C(C)C` [Gly-Val-Ala-Val-Ala-Val-Ala-Glu-Gly-Glu], in series [1], the “Gelation … Calcium added” value is given as “Yes”; the “Concentration … Calcium added” value turned out to be 2 wt %; the “Gelation … DMEM” value was “No”; the “Minimal concentration” value is on record as 2 weight percent. For the same molecule, the “Gelation … Water” value in series [1] is on record as “No”. Moreover, the “G′ after 10 minutes” value in series [2] (setting [6]) turned out to be 140 Pa. The Gross observations entry in the series on Sprague-Dawley rats (100 μl gel, intra-gluteal muscle pocket, day 3, no longer observed at other time points) is on record as “some fluid buildup at day 3”. Besides, the “Tissue response (histology)” value with Sprague-Dawley rats (100 μl gel, intra-gluteal muscle pocket) is on record as “some necrosis of the underlying tissue layer was observed”. Moreover, in the series on Sprague-Dawley rats (100 μl gel, intra-gluteal muscle pocket, listed as Val-Ala-Val-Ala-Val-Ala-Glu-Gly-Glu (SEQ ID NO: 39)), the “Tissue response (histology)” value was “necrosis of the underlying muscle tissue”. Further, the viability at 168 h, 2 % in series [3] was more than 95%.

As to `CCCCCCCCCCCCCCCC(=O)NC(C(=O)N[C@@H](Cc1ccccc1)C(=O)NCC(=O)N[C@@H](Cc1ccccc1)C(=O)NCC(=O)N[C@@H](Cc1ccccc1)C(=O)NCC(=O)N[C@@H](CCCCN)C(=O)N[C@@H](C)C(=O)O)C(=O)N[C@@H](Cc1ccccc1)C(=O)NCC(=O)N[C@@H](Cc1ccccc1)C(=O)NCC(=O)N[C@@H](Cc1ccccc1)C(=O)NCC(=O)N[C@@H](CCCCN)C(=O)N[C@@H](C)C(=O)O` [Phe-Gly-Phe-Gly-Phe-Gly-Lys-Ala], the “Solubility in ultrapure water” value in series [4] was “could not be solubilized”.

In the case of `CCCCCCCCCCCCCCCC(=O)NC(C(=O)N[C@H](C(=O)N[C@@H](C)C(=O)N[C@H](C(=O)N[C@@H](C)C(=O)N[C@H](C(=O)N[C@@H](C)C(=O)N[C@@H](CCCCN)C(=O)N[C@@H](C)C(=O)O)C(C)C)C(C)C)C(C)C)C(=O)N[C@H](C(=O)N[C@@H](C)C(=O)N[C@H](C(=O)N[C@@H](C)C(=O)N[C@H](C(=O)N[C@@H](C)C(=O)N[C@@H](CCCCN)C(=O)N[C@@H](C)C(=O)O)C(C)C)C(C)C)C(C)C` [Val-Ala-Val-Ala-Val-Ala-Lys-Ala], the “Solubility in ultrapure water” value in series [4] was “could not be solubilized”.

With `CCCCCCCCCCCCCCCC(=O)NC(C(=O)N[C@H](C(=O)N[C@@H](C)C(=O)N[C@H](C(=O)N[C@@H](C)C(=O)N[C@H](C(=O)N[C@@H](C)C(=O)N[C@@H](CCC(=O)O)C(=O)N[C@@H](CCC(=O)O)C(=O)N[C@@H](CCC(=O)O)C(=O)O)C(C)C)C(C)C)C(C)C)C(=O)N[C@H](C(=O)N[C@@H](C)C(=O)N[C@H](C(=O)N[C@@H](C)C(=O)N[C@H](C(=O)N[C@@H](C)C(=O)N[C@@H](CCC(=O)O)C(=O)N[C@@H](CCC(=O)O)C(=O)N[C@@H](CCC(=O)O)C(=O)O)C(C)C)C(C)C)C(C)C` [Val-Ala-Val-Ala-Val-Ala-Glu-Glu-Glu], in series [1], the “Gelation … Calcium added” value is “Yes”; the “Concentration … Calcium added” value was 2 wt %; the “Gelation … DMEM” value is listed as “No”; the “Minimal concentration” value was found to be 2 weight percent. The “Gelation … Water” value in series [1] is listed as “No”. The “Transition point between stable gel formation and no or weak gel formation” value in series [5] is “between two and one equivalent of calcium”.
